Source: patent US8466279B2, “Polymorphs of efavirenz” (Hetero Drugs Limited, priority 2004, dated 2013)

Columns and labels:
[1] = dissolution properties compared with the known forms; format: physicochemical
[2] = stability of the crystalline form; format: physicochemical

O=C1Nc2ccc(Cl)cc2[C@@](C#CC2CC2)(C(F)(F)F)O1 [amorphous efavirenz, (4S)-6-chloro-4-(cyclopropylethynyl)-1,4-dihydro-4-(trifluoromethyl)-2H-3,1-benzoxazin-2-one]
dissolution properties [1]: better dissolution properties

O=C1Nc2ccc(Cl)cc2[C@@](C#CC2CC2)(C(F)(F)F)O1 [efavirenz form H1, (4S)-6-chloro-4-(cyclopropylethynyl)-1,4-dihydro-4-(trifluoromethyl)-2H-3,1-benzoxazin-2-one]
stability over the time [2]: stable over the time
stability relative to reported forms ([2]; versus Form I, Form II, Form III, Form 1, Form 2, Form 3, Form 4 and Form 5): at least as stable as the reported forms
